Values of other authors, collected in patent US4086220A, “Fragments of secretin” (G. D. Searle & Co., priority 1976, dated 1978).

Conditions: on a molar basis; parent molecule = intact secretin

Amino acid fragments of the molecule from position 1 to 14: Secretin fragment, positions 1 to 14 (containing the helical portion), reported in literature (Rayford et al.) (HSDGTFTSELSRLR; Secretin; UniProt P09683 28-41, looked up, fragment)
lipolytic activity relative to that of the parent molecule: about 0.5%
